From patent US4117117A, “Tridecapetide having gastrin effect” (Max Planck-Gesellschaft zur Forderung der Wissenschaften, priority 1976, dated 1978) come the findings set out here.

The subject of data set [1] is secretion activity of the stomach and of the pancreas. Briefly: gastrin activity (stimulation of the secretion activity of the stomach and of the pancreas).
The nature of data set [2]: stability compared to natural minigastrin. The following applies: as compared to the natural minigastrin.

On to “L-leucyl-L-glutamyl-L-glutamyl-L-glutamyl-L-glutamyl-L-glutamyl-L-ananyl-L-tyrosyl-glycyl-L-tryptophyl-L-leucyl-L-asparagyl-L-phenylalanineamide [11-leucine-minigastrin]”, for which the gastrin activity entry in data set [1] is reported as “satisfactory”. Moreover, in data set [1] (just like naturally-occurring gastrin), the “stimulation of the secretion activity of the stomach and of the pancreas” value is given as “causes stimulation”. Also, in data set [2], the stability result is listed as “improved stability”.
